According to patent publication US20250090640A1, “METHOD OF IMPROVING THE VIABILITY OF A DENTAL IMPLANT” (priority 2023, published 2025):

Experiments:
[1] = tested on: patients with severe, chronic periodontal disease; settings: 6-week course of daily injections (20 mcg) from 3 days prior to surgery, with oral calcium and vitamin D; cited from earlier work
[2] = tested on: OVX rats; parameters: species or system Sprague-Dawley rats; settings: rat, in vivo
Description: In this study, Sprague-Dawley rats were divided into three groups (Table 1) to study the impact of abaloparatide treatment on implant viability in rats in a model that mimics osteoporosis by ovariectomy (OVX).
At four months, rats in the OVX groups were ovariectomized, and bone depletion was allowed to occur for two months. At this point, daily injections of abaloparatide (Abalo) or vehicle (VEH) began 42 days prior to implant surgery and were continued out to 21 days past implant surgery.
As shown in FIGS. 2A-2C, 3A-3F, and 4A-4C, altered bone metabolism in the OVX rats and residual ridge defects complicated implant placement. […] However, abaloparatide did increase bone mass density in the femoral shaft and intact maxillac on the non-extraction side of the jaw (FIGS. 4A and 4B, respectively). With continued reference to FIGS. 4A and 4B, there was a 150% increase in mean BMD in OVX rats treated with ABL versus VEH.

Compound | clinical outcomes relative to placebo during the year following periodontal surgery [1] | relationship of unexpected healing complications after tooth extraction to treatment [2]
CC[C@H](C)[C@H](NC(=O)[C@H](CCC(=O)O)NC(=O)[C@H](CO)NC(=O)[C@@H](NC(=O)[C@@H](N)CO)C(C)C)C(=O)N[C@@H](CCC(N)=O)C(=O)N[C@@H](CC(C)C)C(=O)N[C@@H](CCSC)C(=O)N[C@@H](Cc1cnc[nH]1)C(=O)N[C@@H](CC(N)=O)C(=O)N[C@@H](CC(C)C)C(=O)NCC(=O)N[C@@H](CCCCN)C(=O)N[C@@H](Cc1cnc[nH]1)C(=O)N[C@@H](CC(C)C)C(=O)N[C@@H](CC(N)=O)C(=O)N[C@@H](CO)C(=O)N[C@@H](CCSC)C(=O)N[C@@H](CCC(=O)O)C(=O)N[C@@H](CCCN=C(N)N)C(=O)N[C@H](C(=O)N[C@@H](CCC(=O)O)C(=O)N[C@@H](Cc1c[nH]c2ccccc12)C(=O)N[C@@H](CC(C)C)C(=O)N[C@@H](CCCN=C(N)N)C(=O)N[C@@H](CCCCN)C(=O)N[C@@H](CCCCN)C(=O)N[C@@H](CC(C)C)C(=O)N[C@@H](CCC(N)=O)C(=O)N[C@@H](CC(=O)O)C(=O)N[C@H](C(=O)N[C@@H](Cc1cnc[nH]1)C(=O)N[C@@H](CC(N)=O)C(=O)N[C@@H](Cc1ccccc1)C(=O)O)C(C)C)C(C)C [Teriparatide] | improved clinical outcomes | 
CC[C@H](C)[C@H](NC(=O)[C@H](CO)NC(=O)[C@H](CCCCN)NC(=O)CNC(=O)[C@H](CCCCN)NC(=O)[C@H](CC(=O)O)NC(=O)[C@H](Cc1cnc[nH]1)NC(=O)[C@H](CC(C)C)NC(=O)[C@H](CC(C)C)NC(=O)[C@H](CCC(N)=O)NC(=O)[C@H](Cc1cnc[nH]1)NC(=O)[C@H](CCC(=O)O)NC(=O)[C@H](CO)NC(=O)[C@@H](NC(=O)[C@H](C)N)C(C)C)C(=O)N[C@@H](CCC(N)=O)C(=O)N[C@@H](CC(=O)O)C(=O)N[C@@H](CC(C)C)C(=O)N[C@@H](CCCNC(=N)N)C(=O)N[C@@H](CCCNC(=N)N)C(=O)N[C@@H](CCCNC(=N)N)C(=O)N[C@@H](CCC(=O)O)C(=O)N[C@@H](CC(C)C)C(=O)N[C@@H](CC(C)C)C(=O)N[C@@H](CCC(=O)O)C(=O)N[C@@H](CCCCN)C(=O)N[C@@H](CC(C)C)C(=O)N[C@@H](CC(C)C)C(=O)NC(C)(C)C(=O)N[C@@H](CCCCN)C(=O)N[C@@H](CC(C)C)C(=O)N[C@@H](Cc1cnc[nH]1)C(=O)N[C@H](C(=O)N[C@@H](C)C(N)=O)[C@@H](C)O [abaloparatide, [Glu^22,25, Leu^23,28,31, Aib^29, Lys^26,30]hPTHrP(1-34)NH2] |  | no relationship
